Results on 21 molecules are retold here after patent US20080051387A1, “TETRAHYDROPYRIDO[3,4-D]PYRIMIDINES AND RELATED ANALOGUES” (priority 2006, published 2008).

Where only a bound is given, the exact number is not on record here.

This experiment has as its target T1, chimeric human H3 receptor (Homo sapiens, UniProt Q9Y5N1).
T1 construct: rat Galpha-i2 (Gnai2, rat); made in house; host or cells: Sf9 insect cells (baculovirus); P2 membranes
Nature of the experiment: Chimeric human H3 receptor screening GTP binding assay (inhibition of histamine-stimulated GTP-gamma35S binding, Example 8). The experiment is classed as biochemical. The following applies: symbol ! in Ki; test compound 4 μM, 1 μM histamine; read-out: percent inhibition of agonist-induced GTP-gammaS binding to H3. The method, boiled down: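 Compound tested at 4 μM against 1 μM histamine stimulation; 125 pM GTP-gamma35S binding measured by filtration and scintillation after 60 min at room temperature. Membranes from Sf9 cells expressing chimeric human H3 plus G-protein subunits, in Tris pH 7.4/NaCl/MgCl2/GDP buffer; values are % inhibition after nonspecific subtraction.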

T1 sequence (Q9Y5N1 with tags, fused parts or gaps): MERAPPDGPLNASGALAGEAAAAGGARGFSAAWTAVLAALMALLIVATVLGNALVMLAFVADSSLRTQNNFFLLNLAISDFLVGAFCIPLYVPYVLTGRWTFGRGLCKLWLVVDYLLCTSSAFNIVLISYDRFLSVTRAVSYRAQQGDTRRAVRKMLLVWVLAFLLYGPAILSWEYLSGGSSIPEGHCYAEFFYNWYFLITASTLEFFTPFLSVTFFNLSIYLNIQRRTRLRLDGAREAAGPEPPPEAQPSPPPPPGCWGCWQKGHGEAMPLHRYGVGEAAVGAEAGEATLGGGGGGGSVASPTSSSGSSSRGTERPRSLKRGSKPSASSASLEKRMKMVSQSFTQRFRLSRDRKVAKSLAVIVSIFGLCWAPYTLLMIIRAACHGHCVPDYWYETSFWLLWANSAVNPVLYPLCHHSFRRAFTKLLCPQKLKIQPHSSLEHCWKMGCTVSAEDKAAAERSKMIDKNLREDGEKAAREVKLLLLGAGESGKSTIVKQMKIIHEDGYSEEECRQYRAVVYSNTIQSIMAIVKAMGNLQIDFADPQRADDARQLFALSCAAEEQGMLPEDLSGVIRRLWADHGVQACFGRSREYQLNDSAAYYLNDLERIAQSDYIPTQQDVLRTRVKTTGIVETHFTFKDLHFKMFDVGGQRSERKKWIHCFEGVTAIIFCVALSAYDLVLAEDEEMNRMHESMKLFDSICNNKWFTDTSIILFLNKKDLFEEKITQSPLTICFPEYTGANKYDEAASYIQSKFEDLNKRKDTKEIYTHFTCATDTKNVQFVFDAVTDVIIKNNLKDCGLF

Usually inhibition stands for the percentage by which the read-out fell short of the control. In the case of `CCCN1CCc2nc(N3CCN(C4CCC4)CC3)ncc2C1` [Compound 627, 2-(4-cyclobutylpiperazin-1-yl)-6-propyl-5,6,7,8-tetrahydropyrido[4,3-d]pyrimidine], the inhibition at 4 µM was not below 90%. In the case of `CCCCN1CCc2nc(N3CCN(C4CCC4)CC3)ncc2C1` [Compound 628, 6-butyl-2-(4-cyclobutylpiperazin-1-yl)-5,6,7,8-tetrahydropyrido[4,3-d]pyrimidine], the inhibition at 4 µM was not below 90%. In the case of `CCCCCN1CCc2nc(N3CCN(C4CCC4)CC3)ncc2C1` [Compound 629, 2-(4-cyclobutylpiperazin-1-yl)-6-pentyl-5,6,7,8-tetrahydropyrido[4,3-d]pyrimidine] it was not below 90%; in that of `CCCCCCN1CCc2nc(N3CCN(C4CCC4)CC3)ncc2C1` [Compound 630, 2-(4-cyclobutylpiperazin-1-yl)-6-hexyl-5,6,7,8-tetrahydropyrido[4,3-d]pyrimidine], not below 90%. With `CC(C)CN1CCc2nc(N3CCN(C4CCC4)CC3)ncc2C1` [Compound 631, 2-(4-cyclobutylpiperazin-1-yl)-6-isobutyl-5,6,7,8-tetrahydropyrido[4,3-d]pyrimidine], the inhibition at 4 µM is not below 90%. With `CCC(C)CN1CCc2nc(N3CCN(C4CCC4)CC3)ncc2C1` (stereo not drawn) [Compound 632, 2-(4-cyclobutylpiperazin-1-yl)-6-(2-methylbutyl)-5,6,7,8-tetrahydropyrido[4,3-d]pyrimidine], the inhibition at 4 µM was not below 90%. In the case of `CCC(CC)CN1CCc2nc(N3CCN(C4CCC4)CC3)ncc2C1` [Compound 633, 2-(4-cyclobutylpiperazin-1-yl)-6-(2-ethylbutyl)-5,6,7,8-tetrahydropyrido[4,3-d]pyrimidine] it was not below 90%; in that of `c1nc(N2CCN(C3CCC3)CC2)nc2c1CN(CC1CC1)CC2` [Compound 634, 2-(4-cyclobutylpiperazin-1-yl)-6-(cyclopropylmethyl)-5,6,7,8-tetrahydropyrido[4,3-d]pyrimidine], not below 90%. Turning to `CCCC(C)CN1CCc2nc(N3CCN(C4CCC4)CC3)ncc2C1` (stereo not drawn) [Compound 635, 2-(4-cyclobutylpiperazin-1-yl)-6-(2-methylpentyl)-5,6,7,8-tetrahydropyrido[4,3-d]pyrimidine], the inhibition at 4 µM is not below 90%.

For `c1nc(N2CCN(C3CCC3)CC2)nc2c1CN(CC1CCOC1)CC2` (stereo not drawn) [Compound 636, 2-(4-cyclobutylpiperazin-1-yl)-6-(tetrahydrofuran-3-ylmethyl)-5,6,7,8-tetrahydropyrido[4,3-d]pyrimidine], the inhibition at 4 µM is not below 90%. The same measure for `Cc1ccc(CN2CCc3nc(N4CCN(C5CCC5)CC4)ncc3C2)cc1C` [Compound 637, 2-(4-cyclobutylpiperazin-1-yl)-6-(3,4-dimethylbenzyl)-5,6,7,8-tetrahydropyrido[4,3-d]pyrimidine]: not below 90%. With `c1cc2c(cc1CN1CCc3nc(N4CCN(C5CCC5)CC4)ncc3C1)OCCO2` [Compound 638, 2-(4-cyclobutylpiperazin-1-yl)-6-(2,3-dihydro-1,4-benzodioxin-6-ylmethyl)-5,6,7,8-tetrahydropyrido[4,3-d]pyrimidine], the inhibition at 4 µM was not below 90%.

Regarding `c1ccc2nc(CN3CCc4nc(N5CCN(C6CCC6)CC5)ncc4C3)ccc2c1` [Compound 639, 2-(4-cyclobutylpiperazin-1-yl)-6-(quinolin-2-ylmethyl)-5,6,7,8-tetrahydropyrido[4,3-d]pyrimidine], the inhibition at 4 µM is not below 90%. Consider `COc1cccc(CN2CCc3nc(N4CCN(C5CCC5)CC4)ncc3C2)c1OC` [Compound 640, 2-(4-cyclobutylpiperazin-1-yl)-6-(2,3-dimethoxybenzyl)-5,6,7,8-tetrahydropyrido[4,3-d]pyrimidine], for which the inhibition at 4 µM was not below 90%. The same measure for `COc1ccc(OC)c(CN2CCc3nc(N4CCN(C5CCC5)CC4)ncc3C2)c1` [Compound 641, 2-(4-cyclobutylpiperazin-1-yl)-6-(2,5-dimethoxybenzyl)-5,6,7,8-tetrahydropyrido[4,3-d]pyrimidine]: not below 90%; for `CCn1cncc1CN1CCc2nc(N3CCN(C4CCC4)CC3)ncc2C1` [Compound 642, 2-(4-cyclobutylpiperazin-1-yl)-6-[(1-ethyl-1H-imidazol-5-yl)methyl]-5,6,7,8-tetrahydropyrido[4,3-d]pyrimidine]: not below 90%.

On to `c1cc(N2CCCC2)ncc1CN1CCc2nc(N3CCN(C4CCC4)CC3)ncc2C1` [Compound 643, 2-(4-cyclobutylpiperazin-1-yl)-6-[(6-pyrrolidin-1-ylpyridin-3-yl)methyl]-5,6,7,8-tetrahydropyrido[4,3-d]pyrimidine], for which the inhibition at 4 µM is not below 90%. On to `Cc1c(F)cccc1CN1CCc2nc(N3CCN(C4CCC4)CC3)ncc2C1` [Compound 644, 2-(4-cyclobutylpiperazin-1-yl)-6-(3-fluoro-2-methylbenzyl)-5,6,7,8-tetrahydropyrido[4,3-d]pyrimidine], for which the inhibition at 4 µM is not below 90%. The same measure for `Clc1ccccc1CN1CCc2nc(N3CCN(C4CCC4)CC3)ncc2C1` [Compound 645, 6-(2-chlorobenzyl)-2-(4-cyclobutylpiperazin-1-yl)-5,6,7,8-tetrahydropyrido[4,3-d]pyrimidine]: not below 90%; for `Clc1ccc(CN2CCc3nc(N4CCN(C5CCC5)CC4)ncc3C2)c(Cl)c1` [Compound 646, 2-(4-cyclobutylpiperazin-1-yl)-6-(2,4-dichlorobenzyl)-5,6,7,8-tetrahydropyrido[4,3-d]pyrimidine]: not below 90%; for `c1cc(N2CCCC2)ccc1CN1CCc2nc(N3CCN(C4CCC4)CC3)ncc2C1` [Compound 647, 2-(4-cyclobutylpiperazin-1-yl)-6-(4-pyrrolidin-1-ylbenzyl)-5,6,7,8-tetrahydropyrido[4,3-d]pyrimidine]: not below 90%.
